Source: PubChem BioAssay AID256 (DTP/NCI, 2004)
Values joined by “and” are separate entries in the source; they are usually repeats but may differ in a detail not shown here. Identical values can stand only once. Inconclusive results and toxic doses are left out.

Tested on: CD2F1 mice, L1210 leukemia ip, survival T/C
Test: NCI In Vivo Anticancer Drug Screen. Data for tumor model L1210 Leukemia (intraperitoneal) in CD2F1 (CDF1) mice
Conditions: higher = longer survival
Outline: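 Activity against a transplanted murine tumor was judged by comparing the compound group with a vehicle group. The outcome in the treated animals was divided by that in the controls.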

SMILES: O=Nc1c(-c2ccccc2)n(O)[n+]([O-])c1-c1ccccc1
- T/C (endpoint: mean survival time, dose: 50.0 mg/kg/injection, schedule: Q01DX009 (ip), vehicle: Klucel (hydroxypropylcellulose) (HPC)): 89 % of control
- T/C (endpoint: mean survival time, dose: 100.0 mg/kg/injection, schedule: Q01DX009 (ip), vehicle: Klucel (hydroxypropylcellulose) (HPC)): 89 % of control
- T/C (endpoint: mean survival time, dose: 200.0 mg/kg/injection, schedule: Q01DX009 (ip), vehicle: Klucel (hydroxypropylcellulose) (HPC)): 97 % of control

SMILES: O=c1[nH]cc(N(CCCl)CCCl)c(=O)[nH]1
- T/C (endpoint: mean survival time, dose: 0.05 mg/kg/injection, schedule: Q01DX009 (ip), vehicle: saline): 101 % of control
- T/C (endpoint: mean survival time, dose: 0.08 mg/kg/injection, schedule: Q01DX009 (ip), vehicle: saline): 106 % of control
- T/C (endpoint: mean survival time, dose: 0.14 mg/kg/injection, schedule: Q01DX009 (ip), vehicle: saline): 109 % of control
- T/C (endpoint: mean survival time, dose: 0.23 mg/kg/injection, schedule: Q01DX009 (ip), vehicle: saline): 112 % of control
- T/C (endpoint: mean survival time, dose: 0.23 mg/kg/injection, schedule: Q04DX003 (ip), vehicle: saline): 107 % of control
- T/C (endpoint: mean survival time, dose: 0.39 mg/kg/injection, schedule: Q04DX003 (ip), vehicle: saline): 109 % of control
- T/C (endpoint: mean survival time, dose: 0.65 mg/kg/injection, schedule: Q01DX001 (ip), vehicle: saline): 115 % of control
- T/C (endpoint: mean survival time, dose: 0.65 mg/kg/injection, schedule: Q04DX003 (ip), vehicle: saline): 113 % of control
- T/C (endpoint: mean survival time, dose: 1.1 mg/kg/injection, schedule: Q01DX009 (ip), vehicle: saline): 167 % of control
- T/C (endpoint: mean survival time, dose: 1.1 mg/kg/injection, schedule: Q04DX003 (ip), vehicle: saline): 151 % of control
- T/C (endpoint: mean survival time, dose: 1.8 mg/kg/injection, schedule: Q01DX009 (ip), vehicle: saline): 115 % of control
- T/C (endpoint: mean survival time, dose: 1.8 mg/kg/injection, schedule: Q04DX003 (ip), vehicle: saline): 182 % of control
- T/C (endpoint: mean survival time, dose: 3.0 mg/kg/injection, schedule: Q01DX001 (ip), vehicle: saline): 163 % of control
- T/C (endpoint: mean survival time, dose: 5.0 mg/kg/injection, schedule: Q01DX001 (ip), vehicle: saline): 221 % of control
- T/C (endpoint: mean survival time, dose: 5.0 mg/kg/injection, schedule: Q04DX003 (ip), vehicle: saline): 91 % of control
- T/C (endpoint: mean survival time, dose: 8.4 mg/kg/injection, schedule: Q01DX001 (ip), vehicle: saline): 110 % of control

SMILES: C/C(=N\O)c1ccc2ccc3ccccc3c2c1
- T/C (endpoint: mean survival time, dose: 100.0 mg/kg/injection, schedule: Q01DX001 (ip), vehicle: saline): 100 % of control
- T/C (endpoint: mean survival time, dose: 100.0 mg/kg/injection, schedule: Q04DX003 (ip), vehicle: saline): 102 % of control
- T/C (endpoint: mean survival time, dose: 200.0 mg/kg/injection, schedule: Q01DX001 (ip), vehicle: saline): 95 % of control
- T/C (endpoint: mean survival time, dose: 200.0 mg/kg/injection, schedule: Q04DX003 (ip), vehicle: saline): 100 % of control
- T/C (endpoint: mean survival time, dose: 400.0 mg/kg/injection, schedule: Q01DX001 (ip), vehicle: saline): 100 % of control
- T/C (endpoint: mean survival time, dose: 400.0 mg/kg/injection, schedule: Q04DX003 (ip), vehicle: saline): 97 % of control

SMILES: N#CC1(O)CCCCC1
- T/C (endpoint: mean survival time, dose: 2.5 mg/kg/injection, schedule: Q01DX009 (ip), vehicle: saline with Tween-80): 102 % of control
- T/C (endpoint: mean survival time, dose: 5.0 mg/kg/injection, schedule: Q01DX009 (ip), vehicle: saline with Tween-80): 104 % of control
- T/C (endpoint: mean survival time, dose: 5.0 mg/kg/injection, schedule: Q04DX003 (ip), vehicle: saline with Tween-80): 102 % of control
- T/C (endpoint: mean survival time, dose: 10.0 mg/kg/injection, schedule: Q01DX009 (ip), vehicle: saline with Tween-80): 94 % of control
- T/C (endpoint: mean survival time, dose: 10.0 mg/kg/injection, schedule: Q04DX003 (ip), vehicle: saline with Tween-80): 102 % of control

SMILES: Cc1c(C)c(C)c(CN2CCC(C)CC2)c(C)c1C
- T/C (endpoint: mean survival time, dose: 25.0 mg/kg/injection, schedule: Q01DX009 (ip), vehicle: saline with Tween-80): 90 % of control
- T/C (endpoint: mean survival time, dose: 50.0 mg/kg/injection, schedule: Q01DX009 (ip), vehicle: saline with Tween-80): 91 % of control
- T/C (endpoint: mean survival time, dose: 100.0 mg/kg/injection, schedule: Q04DX002 (ip), vehicle: saline with Tween-80): 98 % of control
- T/C (endpoint: mean survival time, dose: 200.0 mg/kg/injection, schedule: Q01DX009 (ip), vehicle: saline with Tween-80): 90 % of control
- T/C (endpoint: mean survival time, dose: 200.0 mg/kg/injection, schedule: Q04DX002 (ip), vehicle: saline with Tween-80): 94 % of control
- T/C (endpoint: mean survival time, dose: 400.0 mg/kg/injection, schedule: Q01DX009 (ip), vehicle: saline with Tween-80): 86 % of control
- T/C (endpoint: mean survival time, dose: 400.0 mg/kg/injection, schedule: Q04DX002 (ip), vehicle: saline with Tween-80): 94 % of control

SMILES: CC(C)(C)c1ccc(C(=O)N2CCOC23CCCCC3)cc1
- T/C (endpoint: median survival time, dose: 50.0 mg/kg/injection, schedule: Q01DX005 (ip), vehicle: saline with Tween-80): 101 % of control and 104 % of control
- T/C (endpoint: median survival time, dose: 100.0 mg/kg/injection, schedule: Q01DX005 (ip), vehicle: saline with Tween-80): 96 % of control and 104 % of control
- T/C (endpoint: median survival time, dose: 200.0 mg/kg/injection, schedule: Q01DX005 (ip), vehicle: saline with Tween-80): 98 % of control and 101 % of control
- T/C (endpoint: median survival time, dose: 400.0 mg/kg/injection, schedule: Q01DX005 (ip), vehicle: saline with Tween-80): 100 % of control
- T/C (endpoint: median survival time, dose: 800.0 mg/kg/injection, schedule: Q01DX005 (ip), vehicle: saline with Tween-80): 96 % of control and 101 % of control
